From PMC5460289, “Identification of New Shikonin Derivatives as Antitumor Agents Targeting STAT3 SH2 Domain” (Scientific Reports, 2017)

What was measured:
[1] = test system: pSTAT3 (Tyr705) in MDA-MB-231 cells; test: Western blot of constitutive STAT3 activation; type: cell-based, human
Excerpt: It has been well recognized that the aberrant activation of STAT3 contributes to malignant transformation and tumorgenesis, and its activity is ultimately dependent upon phosphorylation of residue Y705. […] In this study, the ability of PMM-172 and Stattic inhibiting the constitutive STAT3 activation in MDA-MB-231 cells was investigated. […] We further measured STAT3 phosphorylation at Tyr705 in a time-course experiment.
(§1) Figure 6 (A) PMM-172 suppressed constitutive pSTAT3 (Tyr705) in a dose-dependent manner. (B) PMM-172 suppressed constitutive pSTAT3 (Tyr705) in a time-dependent manner. (C) MDA-MB-231 cells were treated with IL-6 (20 ng/mL) or vehicle for 30 min, with or without pretreatment with PMM-172 (2 μM) for 24 h. PMM-172 inhibited IL-6 induced phosphorylation of STAT3. (D) Stattic suppressed constitutive pSTAT3 (Tyr705) in a dose-dependent manner. (E) Stattic suppressed constitutive pSTAT3 (Tyr705) in a time-dependent manner. (F) Tyrosine phosphorylation of two STAT family proteins STAT1 and STAT5 were detected with specific antibodies. […] Data were shown as mean ± SD of three independent experiments. *P < 0.05, **P < 0.01. Cropped blots/gels were used in the figure and the gels had been run under the same experimental conditions; the full-length blots/gels are presented in Supplementary Figure S2.
Cells were rinsed twice with cold PBS and then lysed with RIPA buffer containing a protease inhibitor mixture at 1:100 dilution on ice for 30 min. Insoluble components of cell lysates were removed by centrifugation (4 °C, 12000 rmp, 10 min), and protein concentrations were measured using a Pierce BCA protein assay kit. Proteins were separated by sodium dodecyl sulfate-polyacrylamide gel electrophoresis (SDS-PAGE) and transferred from the gel onto polyvinylidene difluoride (PVDF) membranes. The membranes were blocked with 5% skim milk in TBST buffer for 1 h at room temperature, and then incubated with corresponding primary antibodies diluted in 5% milk-TBST solution at 4 °C with gentle shaking overnight. After washing five times (5 min each), corresponding HRP-conjugated secondary antibodies were incubated for 1 h at room temperature. Immunoreactive bands were visualized using an ECL detection kit (Invitrogen, USA) following the manufacturer’s instruction.

[2] = test system: STAT1; test: Western blot of STAT1 phosphorylation and expression; type: cell-based, human; conditions: MDA-MB-231
Description: as §1
Subsequently, we evaluated the phosphorylation level of other STAT family proteins including STAT1 and STAT5.
(§2) Cells were rinsed twice with cold PBS and then lysed with RIPA buffer containing a protease inhibitor mixture at 1:100 dilution on ice for 30 min. Insoluble components of cell lysates were removed by centrifugation (4 °C, 12000 rmp, 10 min), and protein concentrations were measured using a Pierce BCA protein assay kit. […]

[3] = test system: STAT3 nuclear localization in MDA-MB-231 cells; test: STAT3 nuclear localization (cytoplasmic and nuclear extracts, Western blot); type: cell-based, human; conditions: MDA-MB-231, 24 h
Description: It is known that the dimerization of STAT3 is induced by the phosphorylation at residue Tyr 705, which then leads to its nuclear translocation. Herein, we investigated the effect of PMM-172 and Stattic on STAT3 nuclear translocation. The cytoplasmic and nuclear proteins of treated cells were extracted and the expressions of STAT3 in both fractions were examined.
Figure 7 MDA-MB-231 cells were treated with indicated concentrations of PMM-172 or Stattic for 24 h, the expression levels of STAT3 in cytoplasmic and nuclear extracts were examined and relative expression levels were analyzed by Image J software. β-actin and Lamin B1 served as markers of cytoplasmic and nuclear extractions, respectively. […] (C) MCF-10A cells were treated with the indicated concentrations of PMM-172 for 24 h. PMM-172 had no effect on the level of the pSTAT3 level in MCF-10A cells. […] Data were shown as mean ± SD from three independent experiments, **P < 0.01. Cropped blots/gels were used in the figure and the gels had been run under the same experimental conditions; the full-length blots/gels are presented in Supplementary Figure S3.
To examine the relative proportion of STAT3 in the cytoplasm and nucleus, cytoplasmic and nuclear extracts were prepared. In brief, control and treated cells were collected and suspended in a buffer containing 10 mM HEPES (pH 7.9), 10 mM KCl, 0.1 mM EDTA (pH 8.0), 0.1 mM EGTA (pH 7.0), 1 mM DTT, 0.5 mM PMSF, 2 μg/mL leupeptin, 2 μg/mL aprotonin, 0.5 mg/mL benzamidine. After 15 min, NP-40 (0.25%) was added, and cell lysate was vortexed for 10 s and centrifuged at 10000 rmp at 4 °C for 1 min. […] The protein content in the nuclear and cytoplasmic fractions was determined using a Pierce BCA protein assay kit.
as §2

[4] = MTT anti-proliferation assay, non-tumorigenic cells; type: cell-based; conditions: human, non-tumorigenic MCF-10A cells, 24 h treatment
Description: Initial experiments were performed for evaluation of growth inhibition by the new compounds against six human breast cancer cell lines, including MCF-7 (ER+/PR+, HER-2-), BT474 (ER+/PR+, HER-2+), SKBR-3 (ER-/PR-/HER-2+), MDA-MB-436 (ER-/PR-/HER-2-), MDA-MB-231 (ER-/PR-/HER-2-), MDA-MB-468 (ER-/PR-/HER-2-) and non-tumorigenic MCF-10A cells. After 24 h treatment by the obtained compounds, the inhibition was assessed and the IC50 was summarized. […] Subsequently, the inhibition of STAT3 activation by PMM-172 and Stattic was evaluated using a dual-luciferase assay.
The anti-proliferative activities of the prepared compounds against MCF-7 (ER+/PR+, HER-2-), BT474 (ER+/PR+, HER-2+), SKBR-3 (ER-/PR-/HER-2+), MDA-MB-436 (ER-/PR-/HER-2-), MDA-MB-231 (ER-/PR-/HER-2-), MDA-MB-468 (ER-/PR-/HER-2-) and non-tumorigenic MCF-10A cell lines were evaluated using a standard (MTT)-based colorimetric assay with some modification. Cell lines were grown to log phase in DMEM supplemented with 10% fetal bovine serum. Cell suspensions were prepared and 100 μL/well dispensed into 96-well plates giving 10^4 cells/well. The subsequent incubation was permitted at 37 °C, 5% CO2 atmosphere for 24 h to allow the cells to reattach. Subsequently, cells were treated with the target compounds at increasing concentrations in the presence of 10% FBS for 24 h. Then, cell viability was assessed by the conventional 3-(4, 5-dimethylthiazol-2-yl)-2, 5-diphenyltetrazolium bromide (MTT) reduction assay and carried out strictly according to the manufacturer instructions. The absorbance (OD570) was read on an ELISA reader (Tecan, Austria). In all experiments, three replicate wells were used for each drug concentration. Each assay was carried out for at least three times.

Which results are given for `COc1cc(OC)cc(-c2nnc(SCC(=O)O[C@H](CC=C(C)C)C3=CC(=O)c4c(O)ccc(O)c4C3=O)o2)c1` [PMM-172, (R)-1-(5,8-dihydroxy-1,4-dioxo-1,4-dihydronaphthalen-2-yl)-4-methylpent-3-en-1-yl 2-((5-(3,5-dimethoxyphenyl)-1,3,4-oxadiazol-2-yl)thio)acetate]?
STAT3 expression [1]: had no effect on STAT3 expression; STAT3 phosphorylation at Tyr705, time-course [1]: reduced with the longer treatment; level of Y705-phosphorylated STAT3 (constitutive), dose series [1]: could reduce the level of Y705-phosphorylated STAT3 in MDA-MB-231 cells in a dose-dependent manner; phosphorylation and expression of STAT1 [2]: inhibited neither the phosphorylation nor expression; level of STAT3 in the cytoplasmic fraction [3]: slightly increased; level of STAT3 in the nuclear fraction [3]: decreased by PMM-172 in a dose-dependent manner; CC50 at 24 h [4]: 95.4 ± 0.62 µM
